Like-named read-outs stand apart in the source and are kept apart here.
Legend:
[1] = target: T1, N-terminally FLAG-tagged PARP2 (amino acids 1-583) (Homo sapiens, UniProt Q9UGN5); experiment: PARP2 probe displacement HTRF assay; format: binding; conditions: binned Kd
T1 construct: N-terminally FLAG-tagged PARP2 (amino acids 1-583)
Protocol: Data analysis was performed identical as for PARP1.

[2] = target: T2, full length N-terminally FLAG-tagged PARP1 (Homo sapiens, UniProt P09874); experiment: PARP1 probe displacement HTRF assay; conditions: for Selectivity: PARP1 over PARP2, ratio Kd (PARP2)/Kd (PARP1); for Kd: binned Kd
[3] = target: T2, full length N-terminally FLAG-tagged PARP1; experiment: PARP1 biochemical DELFIA assay (auto-PARylation); design: recombinant full length human N-terminally FLAG-tagged PARP1
[4] = read-out: PARP1 HTRF, PARP1 probe displacement HTRF
[5] = binned IC50, PARP1 biochemical DELFIA assay
[6] = read-out: PARP1 HTRF, probe displacement HTRF
[7] = binned IC50, biochemical auto-PARylation assay

T1 sequence (Q9UGN5 whole entry, the tested form may be a part): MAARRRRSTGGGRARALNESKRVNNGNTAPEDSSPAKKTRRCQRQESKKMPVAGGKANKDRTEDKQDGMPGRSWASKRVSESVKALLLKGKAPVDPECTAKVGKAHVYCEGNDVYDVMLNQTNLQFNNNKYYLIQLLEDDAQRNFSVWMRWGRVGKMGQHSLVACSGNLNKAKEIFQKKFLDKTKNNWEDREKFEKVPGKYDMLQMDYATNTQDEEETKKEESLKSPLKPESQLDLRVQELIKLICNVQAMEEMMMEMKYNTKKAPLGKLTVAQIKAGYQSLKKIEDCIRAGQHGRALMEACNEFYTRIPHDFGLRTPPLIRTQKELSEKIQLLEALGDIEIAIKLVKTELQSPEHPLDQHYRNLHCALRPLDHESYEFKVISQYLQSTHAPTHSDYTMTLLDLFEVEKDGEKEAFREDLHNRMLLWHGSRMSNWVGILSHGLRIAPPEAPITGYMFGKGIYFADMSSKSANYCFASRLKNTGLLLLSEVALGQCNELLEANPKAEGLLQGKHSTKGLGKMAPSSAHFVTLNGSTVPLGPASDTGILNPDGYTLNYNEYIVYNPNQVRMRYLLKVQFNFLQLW
T2 sequence (P09874 whole entry): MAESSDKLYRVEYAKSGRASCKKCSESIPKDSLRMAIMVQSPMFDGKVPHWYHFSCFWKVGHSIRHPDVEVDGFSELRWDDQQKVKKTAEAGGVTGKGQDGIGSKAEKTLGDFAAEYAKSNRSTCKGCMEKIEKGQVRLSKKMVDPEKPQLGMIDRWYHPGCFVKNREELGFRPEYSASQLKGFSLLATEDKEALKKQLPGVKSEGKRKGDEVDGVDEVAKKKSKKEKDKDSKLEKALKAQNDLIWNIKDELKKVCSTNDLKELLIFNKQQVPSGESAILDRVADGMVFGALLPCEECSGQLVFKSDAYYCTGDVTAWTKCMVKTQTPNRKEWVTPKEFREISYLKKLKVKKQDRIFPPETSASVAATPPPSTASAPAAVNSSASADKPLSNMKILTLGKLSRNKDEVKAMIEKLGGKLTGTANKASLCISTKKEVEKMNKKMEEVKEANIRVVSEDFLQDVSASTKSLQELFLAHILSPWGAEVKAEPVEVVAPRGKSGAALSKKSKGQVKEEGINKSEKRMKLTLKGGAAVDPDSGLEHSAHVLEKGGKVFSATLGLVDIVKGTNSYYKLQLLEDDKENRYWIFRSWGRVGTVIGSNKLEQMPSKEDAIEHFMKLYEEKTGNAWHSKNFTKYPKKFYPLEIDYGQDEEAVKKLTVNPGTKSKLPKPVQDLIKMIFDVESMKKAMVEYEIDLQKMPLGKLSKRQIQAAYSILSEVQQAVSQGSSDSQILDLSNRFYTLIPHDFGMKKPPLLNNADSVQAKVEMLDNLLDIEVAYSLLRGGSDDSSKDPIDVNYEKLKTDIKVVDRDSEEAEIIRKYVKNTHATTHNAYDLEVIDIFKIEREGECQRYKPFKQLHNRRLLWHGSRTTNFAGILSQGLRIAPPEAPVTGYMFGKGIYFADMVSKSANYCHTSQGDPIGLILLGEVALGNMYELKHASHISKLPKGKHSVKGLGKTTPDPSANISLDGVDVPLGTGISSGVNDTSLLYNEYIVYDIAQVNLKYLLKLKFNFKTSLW

| SMILES | Kd ([1]; PARP2 probe displacement HTRF) [nM] | Kd [2, 4] [nM] | IC50 [3, 5] [nM] | Kd ([1]; probe displacement HTRF) [nM] | Kd [2, 6] [nM] | IC50 [3, 7] [nM] | Kd ([2]; PARP1 HTRF, PARP1 probe displacement HTRF) [nM] | Selectivity ([2]; probe displacement HTRF) |
| --- | --- | --- | --- | --- | --- | --- | --- | --- |
| CNC(=O)c1ccc(N2CCC(N3CCC(c4cc5cccc(F)c5c(=O)[nH]4)C3)CC2)c(C)n1 (single isomer, unassigned) [Compound 206a] | 100 to 1000 | < 10 | < 10 | – | – | – | – | +++ (+++ indicate a value of at least 100) |
| CNC(=O)c1ccc(N2CCC(N3CCC(c4ccc(Cl)c(=O)[nH]4)C3)CC2)cn1 (single isomer, unassigned) [Compound 201b] | 1000 to 10000 | < 10 | < 10 | – | – | – | – | +++ (+++ indicate a value of at least 100) |
| CNC(=O)c1ccc(N2CCC(N3CCCC(c4ncc(C)c(=O)[nH]4)C3)CC2)cn1 (single isomer, unassigned) [Compound 33b] | > 10000 | 10 to 100 | 10 to 100 | – | – | – | – | ++ (++ indicates a value of 50 to less than 100) |
| Cc1cnc(-c2ccc(N3CCC(N4CCC(c5nc6ccccc6c(=O)[nH]5)C4)CC3)cn2)n1C (racemic) [Compound 321rac] | – | – | – | 100 to 1000 | 100 to 1000 | 100 to 1000 | – | − (− indicates a value of less than 10) |
| CNC(=O)c1ccc(N2CCC(N3CCC(c4ccc(OC)c(=O)[nH]4)C3)CC2)cn1 (single isomer, unassigned) [Compound 148a] | > 10000 | > 10000 | 1000 to 10000 | – | – | – | – | − (− indicates a value of less than 10) |
| CNC(=O)c1ccc(N2CCC(N3CCC(c4nc5onc(C(F)(F)F)c5c(=O)[nH]4)C3)CC2)cn1 (single isomer, unassigned) [Compound 176a] | > 10000 | 100 to 1000 | 100 to 1000 | – | – | – | – | + (+ indicates a value of 10 to less than 50) |
| CNC(=O)c1ccc(N2CCC(N3CCC(c4nc5ccccc5c(=O)[nH]4)C3)CC2)c(C)n1 (single isomer, unassigned) [Compound 125a] | 1000 to 10000 | < 10 | < 10 | – | – | – | – | +++ (+++ indicate a value of at least 100) |
| CCc1ccc(C2CCN(C3CCN(c4ccc(OC(F)F)nc4)CC3)C2)[nH]c1=O (single isomer, unassigned) [Compound 382a] | – | – | – | > 10000 | 100 to 1000 | 100 to 1000 | – | + (+ indicates a value of 10 to less than 50) |
| O=c1[nH]c(CC2CCCN(C3CCC(F)(F)CC3)C2)nc2ccccc12 (single isomer, unassigned) [Compound 11a] | > 10000 | 100 to 1000 | 1000 to 10000 | – | – | – | – | − (− indicates a value of less than 10) |
| CC(=O)NC(=O)c1ccc(N2CCC(N3CCC(c4cc5ccccc5c(=O)[nH]4)C3)CC2)cn1 (single isomer, unassigned) [Compound 333b] | – | – | – | 1000 to 10000 | 10 to 100 | 10 to 100 | – | +++ (+++ indicate a value of at least 100) |
| CS(=O)(=O)Nc1ccc(N2CCC(N3CCC(c4cc5ccccc5c(=O)[nH]4)C3)CC2)cn1 (single isomer, unassigned) [Compound 252b] | – | – | – | 100 to 1000 | 10 to 100 | 10 to 100 | – | + (+ indicates a value of 10 to less than 50) |
| CNC(=O)c1ccc(N2CCC(N3CCC(c4[nH]c(=O)c5cc(F)ccc5c4F)C3)CC2)c(F)n1 (racemic) [Compound 403rac] | – | – | – | 10 to 100 | < 10 | < 10 | – | +++ (+++ indicate a value of at least 100) |
| CNC(=O)c1ccc(N2CCC(N3CCC(c4cc5c(F)cncc5c(=O)[nH]4)C3)CC2)cn1 (single isomer, unassigned) [Compound 331b] | – | – | – | 1000 to 10000 | 10 to 100 | 10 to 100 | – | +++ (+++ indicate a value of at least 100) |
| CNC(=O)c1ccc(N2CCC(N3CCC(c4[nH]c(=O)c5ccccc5c4C(F)(F)F)C3)CC2)cn1 (single isomer, unassigned) [Compound 404b] | – | – | – | 1000 to 10000 | < 10 | < 10 | – | +++ (+++ indicate a value of at least 100) |
| CNC(=O)c1ccc(N2CCC(N3CCC(c4nc5sc6c(c5c(=O)[nH]4)CCC6)C3)CC2)cn1 (single isomer, unassigned) [Compound 189b] | 10 to 100 | < 10 | < 10 | – | – | – | – | ++ (++ indicates a value of 50 to less than 100) |
| CNC(=O)c1ccc(N2CCC(N3CCCC(c4ccc(OC)c(=O)[nH]4)C3)CC2)cn1 (single isomer, unassigned) [Compound 147b] | > 10000 | 1000 to 10000 | 1000 to 10000 | – | – | – | – | − (− indicates a value of less than 10) |
| CNC(=O)c1ccc(N2CCC(N3CCCC(c4ncc(CC(F)(F)F)c(=O)[nH]4)C3)CC2)cn1 (single isomer, unassigned) [Compound 212a] | > 10000 | 100 to 1000 | 100 to 1000 | – | – | – | – | + (+ indicates a value of 10 to less than 50) |
| CNC(=O)c1ccc(N2CCC(N3CCC(c4cc5ncc(F)cc5c(=O)[nH]4)C3)CC2)cn1 (single isomer, unassigned) [Compound 315a] | – | – | – | 100 to 1000 | < 10 | < 10 | – | +++ (+++ indicate a value of at least 100) |
| CCc1ccc(C2CCN(C3CCN(c4cnc(C(=O)NC)cc4C)CC3)C2)[nH]c1=O (single isomer, unassigned) [Compound 217b] | 100 to 1000 | < 10 | < 10 | – | – | – | – | ++ (++ indicates a value of 50 to less than 100) |
| CNC(=O)c1ccc(N2CCC(N3CCC(c4ccc(OC)c(=O)[nH]4)C3)CC2)cn1 (single isomer, unassigned) [Compound 148b] | > 10000 | 1000 to 10000 | 1000 to 10000 | – | – | – | – | − (− indicates a value of less than 10) |
| CCc1ccc(C2CCN(C3CCN(c4ccc(C(=O)NCC(F)(F)F)nc4F)CC3)C2)[nH]c1=O (single isomer, unassigned) [Compound 285b] | – | – | – | > 10000 | < 10 | < 10 | – | +++ (+++ indicate a value of at least 100) |

Continued, in another order:

| Kd ([1]; PARP2 probe displacement HTRF) [nM] | Kd [2, 4] [nM] | IC50 [3, 5] [nM] | Kd ([1]; probe displacement HTRF) [nM] | Kd [2, 6] [nM] | IC50 [3, 7] [nM] | Kd ([2]; PARP1 HTRF, PARP1 probe displacement HTRF) [nM] | SMILES | Selectivity ([2]; probe displacement HTRF) |
| --- | --- | --- | --- | --- | --- | --- | --- | --- |
| 100 to 1000 | 100 to 1000 | 10 to 100 | – | – | – | – | N#Cc1ccc(N2CCC(N3CCCC(c4nc5ccccc5c(=O)[nH]4)C3)CC2)cn1 (single isomer, unassigned) [Compound 70b] | − (− indicates a value of less than 10) |
| 1000 to 10000 | 100 to 1000 | 10 to 100 | – | – | – | – | CNC(=O)c1ccc(N2CCC(N3CCCC(c4nc5sc6c(c5c(=O)[nH]4)CCC6)C3)CC2)cn1 (single isomer, unassigned) [Compound 185b] | + (+ indicates a value of 10 to less than 50) |
| – | – | – | 1000 to 10000 | 100 to 1000 | 100 to 1000 | – | CNC(=O)c1cnc(N2CCC(N3CCC(c4cc5ccccc5c(=O)[nH]4)C3)CC2)s1 (racemic) [Compound 320rac] | − (− indicates a value of less than 10) |
| > 10000 | – | 1000 to 10000 | – | – | – | 100 to 1000 | CNC(=O)c1ccc(N2CCC(C(=O)N3CCC(c4ncc(C(F)(F)F)c(=O)[nH]4)CC3)CC2)cn1 [Compound 59] | − (− indicates a value of less than 10) |
| – | – | – | 100 to 1000 | < 10 | < 10 | – | N#Cc1nc(C(=O)NC2CC2)ccc1N1CCC(N2CCC(c3cc4cccc(F)c4c(=O)[nH]3)C2)CC1 (single isomer, unassigned) [Compound 410b] | +++ (+++ indicate a value of at least 100) |
| 1000 to 10000 | 1000 to 10000 | 1000 to 10000 | – | – | – | – | CCc1cnc(C2CCN(C3CCC(F)(F)CC3)C2)[nH]c1=O (single isomer, unassigned) [Compound 38a] | − (− indicates a value of less than 10) |
| 100 to 1000 | < 10 | < 10 | – | – | – | – | CNC(=O)c1ccc(N2CCC(N3CCC(c4nc5ccc(Cl)cc5c(=O)[nH]4)C3)CC2)cn1 (racemic) [Compound 49rac] | +++ (+++ indicate a value of at least 100) |
| – | – | – | 10 to 100 | < 10 | < 10 | – | CNC(=O)c1ccc(N2CCC(N3CCC(c4cc5cccc(F)c5c(=O)[nH]4)C3)CC2)c(F)c1 (single isomer, unassigned) [Compound 371a] | +++ (+++ indicate a value of at least 100) |
| 1000 to 10000 | < 10 | < 10 | – | – | – | – | CNC(=O)c1ccc(N2CCC(N3CCC(c4nc5ccc(C(F)(F)F)cc5c(=O)[nH]4)C3)CC2)cn1 (single isomer, unassigned) [Compound 161b] | +++ (+++ indicate a value of at least 100) |
| > 10000 | < 10 | < 10 | – | – | – | – | CCc1nc(C(=O)NC)ccc1N1CCC(N2CCC(c3ccc(CC)c(=O)[nH]3)C2)CC1 (racemic) [Compound 134rac] | +++ (+++ indicate a value of at least 100) |
| – | – | – | > 10000 | 1000 to 10000 | 1000 to 10000 | – | CNC(=O)c1ccc(N2CCC(N3CCC(c4ccc(CCOC)c(=O)[nH]4)C3)CC2)cn1 (single isomer, unassigned) [Compound 240b] | − (− indicates a value of less than 10) |
| 1000 to 10000 | 100 to 1000 | 100 to 1000 | – | – | – | – | O=c1[nH]c(CC2CCCN(C3CCC(F)(F)CC3)C2)nc2ccccc12 (single isomer, unassigned) [Compound 11b] | − (− indicates a value of less than 10) |

Source: patent publication US20250152585A1, “PHARMACEUTICAL COMPOUND” (Duke Street Bio Limited, priority 2022, published 2025)
